In data set [1] the test system is ABUTH: velvetleaf (Abutilon theophrasti). Description: Post-Emergent Test I herbicidal activity. The class given is in vivo. The settings on record: Abutilon theophrasti, post-emergence, 336 h, Table 3, 140 g ai/ha, read-out: Visual Growth Reduction (%)-14 Days after Application ABUTH. Put shortly: (§1)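 Greenhouse-grown seedlings (peat-based mix, pH 6.0–6.8; ~15 h photoperiod, 23–29 °C day) were sprayed post-emergence at first/second true-leaf stage with compound in acetone/DMSO/aqueous crop-oil–surfactant carrier at 187 L/ha, using a twofold rate series. Injury was scored visually after 14 d (0–100%); GR20/GR50/GR80 derived by probit analysis.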

The test system of data set [2] is CHEAL: lambsquarters (Chenopodium album). The data set can be described thus: Post-Emergent Test I herbicidal activity. Type of data set: in vivo. The settings on record: Chenopodium album, post-emergence, 336 h, Table 3, 140 g ai/ha, read-out: Visual Growth Reduction (%)-14 Days after Application CHEAL. An outline of the steps: as §1
Data set [3] relates to CYPES: yellow nutsedge (Cyperus esculentus). Description: Post-Emergent Test I herbicidal activity. Type of data set: in vivo. The settings on record: post-emergence, 336 h, Table 3, 140 g ai/ha, read-out: Visual Growth Reduction (%)-14 Days after Application CYPES. An outline of the steps:
as §1

In data set [4] the test system is ECHCG: barnyardgrass (Echinochloa crus-galli). Description: Post-Emergent Test I herbicidal activity. Type of data set: in vivo. The settings on record: post-emergence, 336 h, Table 3, 140 g ai/ha, read-out: Visual Growth Reduction (%)-14 Days after Application ECHCG. Put shortly: as §1
In data set [5] the test system is EPHHL: wild poinsettia (Euphorbia heterophylla). Description: Post-Emergent Test I herbicidal activity. The class given is in vivo. The settings on record: post-emergence, 336 h, Table 3, 140 g ai/ha, read-out: Visual Growth Reduction (%)-14 Days after Application EPHHL. Put shortly: as §1
The subject of data set [6] is ORYSA: rice (Oryza sativa). The data set can be described thus: Post-Emergent Test I herbicidal activity. Type of data set: in vivo. The settings on record: post-emergence, 336 h, Table 3, 140 g ai/ha, read-out: Visual Growth Reduction (%)-14 Days after Application ORYSA. An outline of the steps:
as §1

In the next data set the test system is ZEAMX: corn (Zea mays). The data set can be described thus: Post-Emergent Test I herbicidal activity. Type of data set: in vivo. The settings on record: Zea mays, post-emergence, 336 h, Table 3, 140 g ai/ha, read-out: Visual Growth Reduction (%)-14 Days after Application ZEAMX. An outline of the steps:
as §1

A word on the melting point: it is the temperature of the solid-liquid transition.

As to `COC(=O)c1nc(-c2ccc(Cl)c(OC)c2F)cc(N)c1OC(F)F` [Compound 9], the melting point fell in the range of 162 to 164 °C.
Same read-out and setting: in the case of `COC(=O)c1nc(-c2cc(F)c([Si](C)(C)C)cc2F)c(F)c(N)c1OC` it was 137 to 139 °C; in that of `COC(=O)c1nc(-c2ccc([Si](C)(C)C)cc2F)c(F)c(N)c1OC`, 127 to 129 °C.
On to `COC(=O)c1nc(-c2ccc(Cl)cc2)cc(N)c1OC` [Compound 7, methyl 4-amino-6-(4-chlorophenyl)-3-methoxypicolinate], for which the pest or weed control at 140 g/ha in data set [1] was 90%; in data set [2], 100%; in data set [3], 0%; in data set [4], 0%; in data set [5] it was 95%; in data set [6], 0%. Moreover, the pest or weed control at 140 g/ha in the data set on ZEAMX: corn (Zea mays) stood at 0%.
Take `COC(=O)c1nc(-c2ccc(Cl)c(C(C)F)c2F)c(F)c(N)c1OC` (centres unmarked) [Compound 33, methyl 4-amino-6-(4-chloro-2-fluoro-3-(1-fluoroethyl)phenyl)-5-fluoro-3-methoxypicolinate]: the pest or weed control at 140 g/ha is 100% in data set [1]; 100% in data set [2]; 100% in data set [3]; 80% in data set [4]; 100% in data set [5]; 0% in data set [6]. Moreover, the pest or weed control at 140 g/ha with ZEAMX: corn (Zea mays) was 70%.
Regarding `COC(=O)c1nc(-c2ccc(I)c(F)c2)c(F)c(N)c1OC` [Compound 27], the pest or weed control at 140 g/ha in data set [1] was 60%; in data set [2], 90%; in data set [3], 100%; in data set [4], 60%; in data set [5], 100%; in data set [6], 0%. Also, the pest or weed control at 140 g/ha with ZEAMX: corn (Zea mays) came to 70%.
As for `COC(=O)c1nc(-c2ccc([Si](C)(C)C)c(F)c2F)c(F)c(N)c1OC`, the melting point was in the range of 123 to 125 °C.
For `COC(=O)c1nc(-c2ccc(Cl)c(OC)c2F)cc(NC(C)=O)c1OC` [Compound 3, methyl 4-acetamido-6-(4-chloro-2-fluoro-3-methoxyphenyl)-3-methoxypicolinate], the pest or weed control at 140 g/ha came out at 100% in data set [1]; 100% in data set [2]; 0% in data set [3]; 0% in data set [4]; 100% in data set [5]; 0% in data set [6]. In addition, the pest or weed control at 140 g/ha in the data set with ZEAMX: corn (Zea mays) turned out to be 10%.
In the case of `COC(=O)c1nc(-c2ccc(I)cc2)c(F)c(N)c1OC` [Compound 23, methyl 4-amino-5-fluoro-6-(4-iodophenyl)-3-methoxypicolinate], the pest or weed control at 140 g/ha in data set [1] turned out to be 70%; in data set [2], 100%; in data set [3] it was 100%; in data set [4], 80%; in data set [5] it was 100%; in data set [6], 0%. The pest or weed control at 140 g/ha with ZEAMX: corn (Zea mays) was 70%.
`COc1c(C(=O)O)nc(-c2ccc(Cl)c(C(C)F)c2F)c(F)c1N` (centres unmarked) [Compound 65]: the pest or weed control at 140 g/ha turned out to be 100% in data set [1]; 100% in data set [2]; 100% in data set [3]; 65% in data set [4]; 100% in data set [5]; 0% in data set [6]. Further, in the data set on ZEAMX: corn (Zea mays), the pest or weed control at 140 g/ha is 70%.
Take `COc1c(C(=O)O)nc(-c2ccc(Br)cc2F)c(F)c1N` [Compound 61]: the pest or weed control at 140 g/ha stood at 80% in data set [1]; 100% in data set [2]; 100% in data set [3]; 95% in data set [4]; 100% in data set [5]; 10% in data set [6]. In addition, in the data set on ZEAMX: corn (Zea mays), the pest or weed control at 140 g/ha was found to be 75%.

Source of the values: patent publication US9518018B2, “3-alkoxy, thioalkyl and amino-4-amino-6-(substituted)picolinates and their use as herbicides” (Dow AgroSciences LLC, priority 2011, dated 2016).
